# Laboratory results reported in patent US20130288978A1, “DERMATOPONTIN-ACTIVATING PEPTIDES AND COSMETIC COMPOSITIONS INCLUDING SAME” (ISP INVESTMENTS INC., priority 2010, published 2013).
# Entries after “also recorded” stand apart in the source; their conditions may differ. Ends that are not written are not given here.
# Legend:
# [1] = tested on: dermatopontin; test: Dermatopontin immunofluorescence labeling in normal human fibroblast cultures; type: cell-based; conditions: normal human fibroblasts, peptide 10^−6 M once daily, 24 or 48 hours, vs control conditions
# Experimental: (§1) The objective of this study is to determine the influence of the SEQ ID No. 5 peptide and of the SEQ ID No. 9 peptide on the expression of dermatopontin in fibroblasts. For this, specific immunofluorescence labelings were performed on normal human fibroblast cultures and on skin kept in culture ex vivo.
# Normal human fibroblasts are cultivated for 24 or 48 hours and treated once daily with a 10^−6M solution of peptide SEQ ID No. 5 or of peptide SEQ ID No. 9. The cells are then washed and fixed with 3.7% formaldehyde for 10 minutes at ambient temperature.
# (§2) The fixed cells or the sections are incubated in the presence of a specific rabbit dermatopontin polyclonal antibody (Proteintech group, Ref: 10537-1-AP), then a secondary antibody, coupled to a fluorescent marker. After mounting in an ad hoc medium, the cells are then examined with an Epi-fluorescence microscope (Nikon Eclipse E600 microscope).
# [2] = tested on: dermatopontin; test: Dermatopontin immunofluorescence labeling in human skin kept in culture ex vivo; type: cell-based; conditions: 10^−6 M solution applied topically, 24 or 48 hours
# Experimental: as §1
# The human skin samples are placed in culture at the air/liquid interface. A 10^−6M solution of peptide SEQ ID No. 5 or of peptide SEQ ID No. 9 is applied topically, then the samples are incubated for 24 hours or 48 hours. These skin samples are then fixed with formaldehyde then embedded in paraffin or fixed with OCT, by freezing at −20° C. Sections of 3 to 4 μm are then produced (6 μm for the cold sections). The immunolabeling of the samples embedded in paraffin is performed after unmasking specific sites. The immunolabeling of samples embedded in OCT is performed after fixation at 37° C. and with cold acetone.
# as §2
# [3] = tested on: NHEK; test: Ultrastructure (transmission electron microscopy) of keratinocytes in culture; type: cell-based, human; conditions: 10^−6 M, 48 hours, vs untreated control
# Experimental: (§3) The objective of this study is to observe the subcellular structures of keratinocytes and fibroblasts treated by the SEQ ID No. 5 peptide at 10^−6 M.
# (§4) NHEK or fibroblasts are cultivated in a dish or in a Transwell system, or skins cultivated ex vivo are treated with a 10^−6 M solution of SEQ ID No. 5 peptide for 48 hours (the medium is changed every 24 hours). The skin cells or samples are washed with PBS, then are fixed by Karnosky hypertonic fixation (4% paraformaldehyde, 5% glutaraldehyde in a 0.08M phosphate buffer), 1 hour at ambient temperature, then 24 hours at 4° C. The cells are detached from the substrate by scraping, centrifuged for 5 minutes at 1000 rpm at 4° C. The supernatant is removed and a 0.1 M sodium cacodylate buffer is deposited on the pellet. The cells are mixed with 2% agar then post-fixed by osmium tetroxide for 1 hour. The specimens are then dehydrated by successive passages in an alcohol series (50 to 100%). The skin cells or samples are then coated with a resin. The polymerization is performed for around 12 hours at 60° C. Semi-fine sections of 0.5 μm are performed with the ultra-microtome. The sections are deposited on a subbed slide under heat then stained with toluidine blue. The slides are then dehydrated again and mounted in a suitable medium. […]
# [4] = tested on: fibroblasts; test: Ultrastructure (transmission electron microscopy) of fibroblasts in culture; type: cell-based; conditions: 10^−6 M, 48 hours
# Experimental: as §3, §4
# [5] = tested on: skins cultivated ex vivo; test: Ultrastructure (transmission electron microscopy) of skins cultivated ex vivo; type: cell-based; conditions: ex vivo skin cultures, 10^−6 M, 48 hours
# Experimental: as §3, §4
# [6] = tested on: fibronectin; test: Fibronectin immunofluorescence labeling in human dermal fibroblast cultures; type: cell-based; conditions: human dermal fibroblasts, 10^−6 M once daily, vs control cells
# Experimental: (§5) The objective of this study is to determine the influence of the SEQ ID No. 5 peptide on the expression of fibronectin, a protein of the extracellular matrix synthesized by the fibroblasts. For this, specific immunofluorescence labelings were performed on fibroblast cultures and on ex vivo skin cultures.
# Human dermal fibroblasts in culture are treated once daily with a 10^−6 solution M of SEQ ID No. 5 peptide (the medium containing the active agent is changed every 24 hours). The cells are then washed and fixed with 3.7% formaldehyde for 10 minutes at ambient temperature.
# (§6) The fixed cells or the sections are incubated in the presence of a specific rabbit fibronectin polyclonal antibody (Sigma, Ref: F-3648), then a secondary antibody, coupled with a fluorescent marker. The cells are then examined with the Epi-fluorescence microscope (Nikon Eclipse E600 microscope).
# [7] = tested on: fibronectin; test: Fibronectin immunofluorescence labeling in ex vivo human skin cultures; type: cell-based; conditions: 10^−6 M applied topically, 24 or 48 hours
# Experimental: as §5
# The human skin samples are placed in culture at the air/liquid interface. A 10^−6 M solution SEQ ID No. 5 peptide or SEQ ID No. 9 peptide is to be applied topically, then the samples are incubated for 24 or 48 hours. These skin samples are then fixed with formaldehyde, then embedded in paraffin or fixed with OCT by freezing at −20° C. Sections of 3 to 4 μm are then produced (6 μm for cold sections). The immunolabeling of the samples embedded in paraffin is performed after unmasking specific sites. The immunolabeling of the samples embedded in OCT is performed after fixation at 37° C. and with cold acetone.
# as §6
# [8] = tested on: collagen I; test: Collagen I immunofluorescence labeling in normal human fibroblast cultures; type: cell-based; conditions: 10^−6 M once per day, 24 or 48 hours, vs control conditions
# Experimental: (§7) The objective of this study is to determine the influence of the SEQ ID No. 5 peptide on the expression of molecules of the dermal extracellular matrix. For this, the expression of collagens I and III in human fibroblasts obtained from the dermis was studied.
# (§8) Normal human fibroblasts are cultivated for 24 or 48 hours and treated once per day with a 10^−6M solution of SEQ ID No. 5 peptide or SEQ ID No. 9 peptide. The cells are then washed and fixed with formaldehyde at 3.7% for 10 minutes at ambient temperature.
# (§9) The fixed cells or sections are incubated in the presence of a specific rabbit collagen I polyclonal antibody (Rockland, Ref: 600-401-103) or a specific rabbit collagen III polyclonal antibody (Rockland, Ref: 600-401-105), then a secondary antibody coupled to a fluorescent marker. After mounting in an ad hoc medium, the cells are then examined with the Epi-fluorescence microscope (Nikon Eclipse E600 microscope).
# [9] = tested on: collagen I; test: Collagen I immunofluorescence labeling in ex vivo human skin sections; type: cell-based; conditions: 10^−6 M applied topically, 24 or 48 hours, vs control conditions
# Experimental: (§10) The human skin samples are placed in culture at the air/liquid interface. A 10^−6M solution of SEQ ID No. 5 peptide or SEQ ID No. 9 peptide is applied topically, then the samples are incubated for 24 hours or 48 hours. These skin samples are then fixed with formaldehyde, then embedded in paraffin or fixed with OCT by freezing at −20° C. Sections of 3 to 4 μm are then produced (6 μm for cold sections). The immunolabeling of samples embedded in paraffin is performed after unmasking specific sites. The immunolabeling of the samples embedded in OCT is performed after fixation at 37° C. and with cold acetone.
# as §9
# [10] = tested on: collagen III; test: Collagen III immunofluorescence labeling in normal human fibroblast cultures; type: cell-based; conditions: 10^−6 M once per day, 24 or 48 hours, vs control conditions
# Experimental: as §7, §8, §9
# [11] = tested on: collagen III; test: Collagen III immunofluorescence labeling in ex vivo human skin sections; type: cell-based; conditions: 10^−6 M applied topically, 24 or 48 hours, vs control conditions
# Experimental: as §10, §9
# [12] = tested on: elastic fibers present in the dermis; test: Elastic fiber staining (Elastika van Gieson) of ex vivo human skin irradiated by UVA; type: cell-based; conditions: 10^−6 M topically 48 hours before UVA 5 J/cm^2, vs untreated irradiated controls
# Experimental: The objective of this study is to determine the influence of the SEQ ID No. 5 peptide on the elastic fibers present in the dermis. To do this, specific staining of the elastic fibers was performed on skin samples cultivated ex vivo.
# Human skin samples are placed in culture at the air/liquid interface. A 10^−6 M solution of SEQ ID No. 5 peptide is applied topically, then the samples are incubated for 48 hours before being irradiated by UVA at 5 J/cm^2. Untreated irradiated controls are produced in parallel.
# These skin samples are then fixed with formaldehyde, then embedded in paraffin. Sections of 4 μm are then produced. These skin sections are successively removed from the paraffin, then rehydrated in different xylene and alcohol baths. the elastin fibers are stained using an Elastika van Gieson staining kit (VWR, Ref: 1.15974). The stained skin sections are dehydrated then mounted in the Eukitt mounting medium and observed under a microscope.
# [13] = tested on: normal human keratinocytes (NHEK); test: Ibidi in vitro healing model (gap filling), keratinocytes; type: cell-based
# From the text: (§11) The objective of this study is to determine the regenerating effect of the SEQ ID No. 5 peptide on dermal fibroblasts and normal human keratinocytes (NHEK). To do this, the Ibidi in vitro healing model (Integrated Bio Diagnostics, Munich, Germany) was used.
# (§12) This test consists of maintaining a cell-free area at the middle of a cell layer and of evaluating the time taken by the cells arranged on either side of the “scar” to migrate or proliferate and fill the gap. The self-adhesive silicone culture inserts are placed at the base of a well of a culture plate. These inserts have the special feature of being comprised of two distinct chambers separated by an impermeable membrane with a thickness of 500 μm. Each of the two chambers is seeded with cells of the same cell type and cultivated until confluency. The insert is then removed with sterile tweezers, creating an acellular area 400 μm wide between the two cell layers. The cells are then treated with a 10^−6 M or a 3×10^−6M solution of SEQ ID No. 5 peptide added to the culture medium, with renewal of the peptide every 24 hours. Phase-contrast microscopy observations (Olympus CK40 microscope X5 connected to an Olympus E-510 camera) were performed at different times (0, 6, 24, 30 and 48 hours) until the proliferation and migration process results in the filling of the gap.
# [14] = tested on: dermal fibroblasts; test: Ibidi in vitro healing model (gap filling), fibroblasts; type: cell-based, human
# From the text: as §11, §12
substance,measurement,setting,value
Arg-Glu-Trp-Gln-Phe-Tyr-Cys(Cys)-(NH2) [SEQ ID No. 5],expression of dermatopontin (immunofluorescence),[1],more intense fluorescence; also recorded: very substantially stimulate the expression of dermatopontin
same,expression of dermatopontin (immunofluorescence),[2],more intense fluorescence at the dermis
same,intercellular contacts between keratinocytes (ultrastructure),[3]; cultures in a TRANSWELL system,more cohesive
same,organelles / mitochondria in keratinocytes (ultrastructure),[3]; keratinocytes in culture,"enrichment in organelles, and in particular mitochondria; also recorded: increase in the density of mitochondria"
same,"caveolar bodies, rough endoplasmic reticulum and Golgi apparatus (ultrastructure)",[4]; vs control cells,substantially more developed
same,secretion / synthesis of components of the extracellular matrix (ultrastructure),[4]; vs untreated control cells,more intense secretion of components of the extracellular matrix; also recorded: increase in the synthesis of components of the extracellular matrix
same,cellular contacts between the cells of the basal layer (ultrastructure),[5],narrower cellular contacts between the cells of the basal layer; also recorded: increases the intercellular contacts of the basal keratinocytes
same,expression of fibronectin (immunofluorescence),[6],more intense cytoplasmic fluorescence; also recorded: very substantially stimulates the expression of fibronectin
same,densification of the area supporting the dermoepidermal junction (fibronectin immunofluorescence),[7],stimulates the densification of the area supporting the dermoepidermal junction
same,expression of collagen I (immunofluorescence),[8],more intense fluorescence; also recorded: increases the expression of collagen I
same,expression of collagen I (immunofluorescence),[9],more intense fluorescence
same,expression of collagen III (immunofluorescence),[10],more intense fluorescence; also recorded: increases the expression
same,expression of collagen III (immunofluorescence),[11],more intense fluorescence
same,degradation of the elastic fibers after UV irradiation,[12],less degradation of the elastic fibers; also recorded: preserves the elastic fibers
same,organization of the elastic fibers after UV irradiation,[12],better preservation of the organization of the elastic fibers
same,gap filling / proliferation and migration by comparison with control conditions,[13]; NHEK cultivated in the presence of the peptide,filled the gap faster; also recorded: stimulates the proliferation and migration
same,time to total filling of the gap,"[13]; human keratinocytes, 10^−6 M, 400 μm gap, control gap not yet filled at the same time",30 h
same,dose dependence of gap filling,"[13]; keratinocytes, 3×10^−6 M compared with 10^−6 M",the gap fills faster
same,gap filling / proliferation and migration by comparison with control conditions,[14]; fibroblasts cultivated in the presence of the peptide,filled the gap faster; also recorded: stimulates the proliferation and migration
same,dose dependence of gap filling,"[14]; fibroblasts, 3×10^−6 M compared with 10^−6 M",the gap fills faster
same,time to total filling of the gap,"[14]; human fibroblasts, 10^−6 M, 400 μm gap, control gap not yet filled at the same time",48 h
Asp-Arg-Glu-Trp-Gln-Phe-Tyr-Cys-NH2 (DREWQFYC-NH2) [SEQ ID No. 9],expression of dermatopontin (immunofluorescence),[1],more intense fluorescence; also recorded: very substantially stimulate the expression of dermatopontin
same,expression of dermatopontin (immunofluorescence),[2],more intense fluorescence at the dermis
